Data set [1] concerns Plasmodium falciparum isolates. As to the kind of experiment: WHO Standard Microtest, inhibition of schizont maturation in vitro. To be noted: for power ratio (PR) between benflumetol and the compound: Litchfield & Wilcoxon comparison; for efficacy compared with benflumetol (in words): Plasmodium falciparum in vitro; for inhibition at 0.003 µM: 3.0 nmol/l; for inhibition at 0.01 µM: 10.0 nmol/l; for inhibition at 0.03 µM: 30.0 nmol/l; for inhibition at 0.1 µM: 100.0 nmol/l; for inhibition at 0.3 µM: 300.0 nmol/l; for inhibition at 1 µM: 1000.0 nmol/l; for inhibition at 3 µM: 3000.0 nmol/l; for EC50: probit analysis, 95% confidence limits. Format: cell-based. The protocol: The study is carried out in Mae Sot, a province in north-west Thailand close to Myanmar. […] The test for efficacy is carried out with blood samples obtained by finger pricks (in accordance with the WHO Standard Microtest Method for studying the inhibition of schizont maturation, see Wemsdorfer, W. H., and Payne, D. (1988), Drug Sensitivity Tests. In: Wemsdorfer, W. H., and McGregor, I. A. (Editors), Malaria: Principles and practice of malariology; Churchill Livingstone, Edinburgh). The tests are carried out in parallel with benflumetol and the 2-alkylamino-1-[2,7-dichloro-9-(4-chlorobenzylidene]-9H-fluoren-4-yl)ethanols in concentrations between 3 and 3000 nmol/l in blood medium mixture (BMM) using materials from the WHO Standard Test Kit supplied by the WHO Regional Office for the Western Pacific, Manila, except for the predosed microtitre plates, which are prepared in the laboratory of the institute of Specific Prophylaxis and Tropical Medicine, University of Vienna, Austria.
The procedure for determining parasitaemia before incubation follows the WHO Standard Method (WHO (1991), Basic malaria microscopy. Part I; WHO, Geneva). The schizont titres are determined as described in Wemsdorfer and Payne (1988) (see above).
The statistical analysis of the data was carried out according to log-concentration/response probit analysis (Litchfield & Wilcoxon (1949), J. Exp. Pharmacol. 89, 99-113). This method is based on the least-squares procedure and is the most widely accepted method for the analysis of dose-response studies. A computer adaptation of the method (Wernsdorfer & Wernsdorfer, Mitteilungen der Österreichischen Gesellschaft für Tropenmedizin und Parasitologie 17, 221-228) is used for data processing.

For data set [2] the following is noted: cited from earlier work.
The conditions of data set [3]: cited from earlier work. This is another data set of the same source.
For data set [4] the following is noted: taken with foods having a high fat content; cited from earlier work.
Where [5] appears, read: Plasmodium falciparum, 34-isolate test series (Examples 6.2 and 6.3).
Where [6] appears, read: Plasmodium falciparum, 34-isolate test series (Examples 6.2 and 6.3), read-out: EC50: mean value.
Where [7] appears, read: Plasmodium falciparum, 58 isolates (Example 6.1).

Like-named read-outs stand apart in the source and are kept apart here.

With `CNCC(O)c1cc(Cl)cc2c1-c1ccc(Cl)cc1C2=Cc1ccc(Cl)cc1` (stereo not shown) [5a, 2-Methylamino-1-[2,7-dichloro-9-(4-chlorobenzylidene)-9H-fluoren-4yl]ethanol], in data set [1] (34 isolates), the “EC99 of the compound as fraction of that for benflumetol” value was “about one fifth”; the “concentration at which none of the isolates shows schizont maturation” value (“concentration at which none” for short) is 1000 nmol/L; the “power ratio (PR) between benflumetol and the compound” value is 2.8898. In data set [1], the “efficacy compared with benflumetol (in words)” value is recorded as “about four times as effective as benflumetol”. In data set [1] (setting [5]), this compound came in with an inhibition at 0.003 µM of 13.1%, an inhibition at 0.01 µM of 51.9%, an inhibition at 0.03 µM of 83.1% and an inhibition at 0.1 µM of 95.8%. In data set [1] (setting [5]), at 0.3 µM the inhibition was 97.1%, testing at 1 µM gave an inhibition of 100% and the inhibition at 3 µM came to 100%. The EC50 in data set [1] (setting [6]) was found to be 10.5 nM. Further, the isolates completely inhibited in data set [1] (at 100 nml/l, 34 isolates) is listed as 96%.

Take `CCCCCNCC(O)c1cc(Cl)cc2c1-c1ccc(Cl)cc1C2=Cc1ccc(Cl)cc1` (stereo not shown) [5c, 2-n-Pentylamino-1-[2,7-dichloro-9-(4-chlorobenzylidene)-9H-fluoren-4yl]ethanol]: in data set [1] (34 isolates), the “EC99 of the compound, times lower than that for benflumetol” value is on record as “about 4 times”; the “concentration at which none” value was 3000 nmol/L; the “power ratio (PR) between benflumetol and the compound” value was found to be 2.0724. Besides, the “efficacy compared with benflumetol (in words)” value in data set [1] was “about five times as effective as benflumetol”. Also, in data set [1] (setting [5]), the inhibition at 0.003 µM turned out to be 6.83%, 0.01 µM produced 36.4% inhibition, the inhibition at 0.03 µM turned out to be 81.2% and testing at 0.1 µM gave an inhibition of 94.8%. For the same compound, in data set [1] (setting [5]), testing at 0.3 µM gave an inhibition of 97%, the inhibition at 1 µM is 99.6% and the inhibition at 3 µM is 100%. The EC50 in data set [1] (setting [6]) worked out at 14.4 nM. The isolates completely inhibited in data set [1] (at 100 nml/l, 34 isolates) came out at 95%.

For the compound `CCN(CC)CCCC(C)Nc1ccnc2cc(Cl)ccc12` (stereo not shown) [Chloroquine], the “half-life (in words)” value in data set [2] (in vivo) was “very long half-life”.

For the compound `CO[C@H]1O[C@@H]2O[C@@]3(C)CC[C@H]4[C@H](C)CC[C@@H]([C@H]1C)[C@@]24OO3` [artemether, [3R-(3α, 5αβ, 6β, 8αβ, 9α, 10α, 12β,-12aR)]-decahydro-10-methoxy-3,6,9-trimethyl-3,12-epoxy-12H-pyrano[4,3-j]-1,2-benzodioxepin], the half-life in data set [2] (in plasma) is 2 h.

As to `CCCCN(CCCC)CC(O)c1cc(Cl)cc2c1-c1ccc(Cl)cc1C2=Cc1ccc(Cl)cc1` (stereo not shown) [benflumetol, 2-(di-n-butylamino)-1-[2,7-dichloro-9-(4-chlorobenzylidene)-9H-fluoren-4-yl]ethanol], in data set [3], the “solubility (in words)” value was “not very good”. For the same compound, the plasma half-life in data set [2] (in patients) is 96 to 140 h. Moreover, the “concentration at which none” value in data set [1] (34 isolates) is “above 3000 nmol/l”. Further, the “concentration at which none” value in data set [1] (58 isolates) is “above 300 nmol/l”. In data set [1] (setting [5]), this compound registered an inhibition at 0.003 µM of 7.16%, an inhibition at 0.01 µM of 18.4%, an inhibition at 0.03 µM of 42.8% and an inhibition at 0.1 µM of 90.7%. In data set [1] (setting [5]), this compound registered an inhibition at 0.3 µM of 96.2%, an inhibition at 1 µM of 99.9% and an inhibition at 3 µM of 100%. In data set [1] (setting [7]), testing at 0.003 µM gave an inhibition of 7.14%, the inhibition at 0.01 µM turned out to be 20.4%, the inhibition at 0.03 µM is 47.2% and at 0.1 µM the inhibition was 90.7%. In data set [1] (setting [7]), this compound displayed an inhibition at 0.3 µM of 99.8%, an inhibition at 1 µM of 100% and an inhibition at 3 µM of 100%. In addition, the EC50 in data set [1] (setting [6]) was determined as 28 nM. Further, the half-maximal effective concentration (EC50) in data set [1] (Plasmodium falciparum, read-out: EC50: mean value (50% inhibition versus controls not given active substance), 58 isolates (Example 6.1)) came out at 24.4 nM. In data set [1] (at 300 nmol/l, 34 isolates), this compound had an isolates completely inhibited of 96%. Also, the isolates completely inhibited in data set [1] (at 300 nmol/l, 58 isolates) is 97%. Besides, the EC50 in data set [1] (read-out: EC50: mean value (50% inhibition versus controls not given active substance), 58 isolates (Example 6.1)) turned out to be 24.4 nM. The “absorption with foods having a high fat content, times higher than in the absence of such fatty foods” value in data set [4] is recorded as “up to 16 times”.

By inhibition is commonly meant the drop in the measured response relative to a control, in per cent. The low end stands for a weak effect, the high end for a strong effect. In general, EC50 refers to the concentration that produces a half-maximal response. A word on the half-life: it is the time in which the quantity being followed falls by half.
